Results taken from patent publication US8877732B2, “Combination, kit and method of reducing intraocular pressure” (Inotek Pharmaceuticals Corporation, priority 2010, dated 2014).

Columns and labels:
[1] = system: intraocular pressure (IOP) in normotensive monkeys; assay: IOP after single topical ocular dosing of Compound A with or after latanoprost in conscious normotensive monkeys (Treatments 1-5); assay type: in vivo, cynomolgus monkeys (Macaca fascicularis); details: pre-clinical studies
Protocol: Compound A was administered in two different formulations: […]
The aqueous formulation comprised of the following: […]
The control in the first treatment was a 40 mcL composition of 0.8% sodium chloride (NaCl), 0.15% citrate, 0.01% benzalkonium chloride, 0.3% polysorbate 80, and 0.7% sodium (Na) carboxymethylcellulose.
In the third treatment, 10 monkeys received latanoprost (Xalatan™) dosed via 2 drops at 15 mcL apart (at a concentration of 50 mcg/mL) for a total dose of 1.5 mcg in one study eye and 2 drops of saline vehicle in the contralateral eye. This treatment was performed at two separate times with a sufficient washout between treatments. The IOPs of both the study eye and contralateral eye were measured repeatedly using a calibrated pneumotonometer following an application of a topical anesthetic (proparacaine).
In the fourth treatment, 10 monkeys received latanoprost (Xalatan™) topically dosed via 2 drops at 15 mcL apart (at a concentration of 50 mcg/mL) for a total dose of 1.5 mcg in one study eye and saline in the contralateral eye. […] The intraocular pressures (IOP) of both the study eye and contralateral eye were measured repeatedly using a calibrated pneumotonometer following an application of a topical anesthetic (proparacaine). […]

[2] = system: intraocular pressure (IOP) in normotensive monkeys; assay: Multidose study: twice-daily topical Compound A suspension with once daily topical latanoprost, IOP in conscious monkeys; assay type: in vivo, cynomolgus monkeys (Macaca fascicularis)
Protocol: Ten female, ocular normotensive cynomolgus monkeys (Macaca fascicularis), aged 3 to 4 years old at initiation of treatment, were acclimated to ocular topical dosing and repeated IOP measurements using a pneumatonometer (Model 30 Classic) without general anesthesia or sedation (conscious) and dosed as indicated in Table 1.
Intraocular pressure was measured from both eyes (three readings/eye/time interval with mean values represented in the data tables) beginning approximately 1 hour predose, at Time 0 (just prior to dosing), and after dosing at various time intervals. Mean IOP values and the percent change in IOP levels from the baseline level were calculated. The FIGS. 5 and 6 show summarized data from this phase of the study of the combined IOP mean values of treatments and standard deviation of the mean for the control. The control plot includes the combined mean values of all treatments (BSS alone and BSS in combination with Placebo). The mean IOP levels in the control eye ranged from 21 to 22 mmHg.

[3] = Compound A 65 μg/dose BID plus latanoprost 1.5 μg QD, right eye

| Structure (SMILES) | IOP reduction by the combination of Compound A and latanoprost [1] | reduction in IOP compared with latanoprost alone ([2]; Compound A 65 μg/dose BID (130 μg/day) suspension plus latanoprost 1.5 μg QD, right eye, 1 hour after each Compound A dose (Time 0 and 5 hours)) | IOP reduction at peak trough after the first daily dose [2, 3] | IOP reduction at peak trough after the second daily dose [2, 3] | reduction from the mean IOP baseline levels ([2]; latanoprost alone 1.5 μg/dose once daily topical, right eye, at peak trough) | reduction of mean IOP levels at peak trough ([2]; latanoprost alone 1.5 μg/dose once daily topical, right eye, repeated dosing, n=10) | IOP of treated eyes versus control eyes ([2]; latanoprost alone, after repeated treatments for two weeks, including pre-dose times) |
| --- | --- | --- | --- | --- | --- | --- | --- |
| O=[N+]([O-])OC[C@H]1O[C@@H](n2cnc3c(NC4CCCC4)ncnc32)[C@H](O)[C@@H]1O [Compound A, ((2R,3S,4R,5R)-5-(6-(cyclopentylamino)-9H-purin-9-yl)-3,4-dihydroxytetrahydrofuran-2-yl)methyl nitrate] | significant IOP reduction | greater reduction in IOP | approximately 12% | ~17% |  |  |  |
| CC(C)OC(=O)CCC/C=C\C[C@@H]1[C@@H](CC[C@@H](O)CCc2ccccc2)[C@H](O)C[C@@H]1O [latanoprost, isopropyl-(Z)-7[(1R,2R,3R,5S)3,5-dihydroxy-2-[(3R)-3-hydroxy-5-phenylpentyl]cyclopentyl]-5-heptenoate, reference compound] |  |  |  |  | approximately 13% | about 2 mm Hg | slightly lower than that of the control eyes |
